In patent US20250163116A1, “NEW METHOD TO TREAT INFECTIOUS DISEASES” (INSERM (INSTITUT NATIONAL DE LA SANTÉ ET DE LA RECHERCHE …, priority 2022, published 2025):

Legend:
[1] = test system: SCID mice grafted with human skin infected with Nm 2C4.3; assay: Outcome of meningococcal infection in SCID mice grafted with human skin (survival, with or without antibiotics); assay type: in vivo; settings: 200 mg kg-1 cefotaxime
Description: A-D, SCID mice grafted with human skin were infected intravenously with Nm 2C4.3 wild-type strain (5×10^6 bacteria); 2 h after bacterial challenge, mice received recombinant human ANGPTL4 (1 μg, intravenously), cefotaxime (200 mg kg-1, intraperitoneally) alone or in combination with ANGPTL4 or vehicle as a control. 18 h following bacterial challenge, ANGPTL4 (1 μg) and cefotaxime (200 mg kg-1) were re-administered. This experiment was performed twice with n=3 or 4 mice per group, using skin from two different donors. A, A schematic representation of the protocol used in vivo. B, Bacteraemia 4, 18, 48 and 72 h post-infection (mean±s.e.m.). C, Survival curve: * P=0.0275; two-sided log-rank Mantel-Cox survival analysis. D, Thrombosis within the skin grafts at 4 h post-infection was assessed by immunofluorescence analysis and quantified as described in FIG. 8 (error bars show mean±s.e.m.; 40 vessels per mouse were analysed; n=4 mice per group; *** P<0.001; two-tailed Student's t-test.
Six-week-old CB17/Icr-Prkdcscid female mice were obtained from Janvier Labs. Human skin tissues were obtained from adult patients undergoing plastic surgery in the Service de Chirurgie Plastique et Reconstructive of the Groupe Hospitalier Saint-Joseph. […] Experimental procedures were performed as previously described in accordance with the guidelines of the Institut National de la Santé et de la Recherche Médicale and conformed to the European ethical legislation (Directive 2010/63/EU). The experimental protocol was approved by the Animal Experimentation Ethics Committee of the Université Paris Descartes (consent forms CEEA34.O.J.L.039.12 and 2018012515596498). […] A skin flap was created and a full thickness human skin graft was placed onto the wound bed. The transplants were held in place with 6-0 non-absorbable monofilament suture materials, and the flap was then sutured above the transplant. Grafted mice were infected 4-6 weeks after human skin transplantation. N. meningitidis was grown overnight at 37° C. on GCB agar plates prepared without iron and supplemented with 15 μM deferoxamine (Desferal, Novartis). Bacterial colonies were harvested and cultured in RPMI media with 1% BSA medium and 0.06 μM deferoxamine with gentle agitation to reach the exponential phase of growth. Bacteria were then resuspended in physiological saline solution. Mice were infected intravenously with 200 μl (5×10^6 bacteria) of this bacterial suspension. A 10 mg dose of human holotransferrin (R&D Systems) was administered intraperitoneally just before infection. Mice were killed at 4 h after infection. Human skin grafts were carefully collected using a sterile cutter. The tissue was washed in PBS and fixed overnight at 4° C. in 4% paraformaldehyde in phosphate buffer. After washing in phosphate buffer, the specimens were embedded in OCT medium and then frozen at −80° C. Sections of the dermis (7 μm thick) were immobilized on Superfrost Plus microscope slides and subjected to immunofluorescence analysis. Sections were incubated with the primary antibodies for 1 h in PBS/3% BSA then DAPI was added to Alexa-conjugated secondary antibodies for 1 h. After additional washing, coverslips were mounted in glycergel (Dako) and were further analysed using a slide scanner (Lamina, Perkin Elmer). Analysis of the images was performed using ImageJ software (NIH). […]
We then analysed whether ANGPTL4 could provide a beneficial effect when administered with antibiotics.

[2] = test system: HDMECs infected with Nm 2C4.3; assay: Integrity of HDMEC monolayers infected with N. meningitidis (VE-cadherin at intercellular junctions, immunofluorescence); assay type: cell-based, human; settings: 1 μg/mL added 30 min after initiation of Nm infection, 2 h 30
Description: FIG. 1. Exogenous ANGPTL4 exerts protective effects on dermal microvascular endothelial cells infected by N. meningitidis. A. HDMECs were infected with Nm 2C4.3 for 30 min and treated with 1 μg/mL of recombinant human ANGPTL4 for 2 h 30. Cells were fixed and stained for cellular actin, VE-cadherin and DAPI and analyzed by fluorescent microscopy. Quantifications of VE-cadherin enrichment at intercellular junctions and of intercellular spaces area were performed on 30 fields with Image J software. Kruskal-Wallis test ** P<0.001; P<0.0001. B. HDMEC were either uninfected or infected with N. meningitidis 2C4.3 for 30 min and treated with 1 μg mL−1 of recombinant human ANGPTL4, its N-terminal portion (nANGPTL4) or its C-terminal portion (cANGPTL4) for 2 h 30. Caspase-3/7 reagent was added to detect apoptosis in real time over 9 h using the IncuCyte® Live-Cell Analysis System
FIG. 2: Vascular protection is conferred by the N-terminal part of ANGPTL4. A, Schematic representation of ANGPTL4 structure. ANGPTL4 contains a N-terminal portion (nANGPTL4, aa 26-164) linked to a C-terminal portion (cANGPTL4, aa 164-406) by a cleavable linker. nANGPTL4 contains a highly conserved lipoprotein lipase (LPL) binding domain (aa 44-55), two cysteines on position 76 and 80 involved in protein oligomerization and a coiled-coil domain (aa 100-143). The C-terminal portion encodes a fibrinogen-like domain. B, HDMECs were infected with Nm 2C4.3 for 30 min and treated with 1 μg/mL of recombinant human ANGPTL4, nANGPTL4 or cANGPTL4 for 2 h 30. Cells were fixed and stained for cellular actin, VE-cadherin and DAPI and analyzed by fluorescent microscopy. B. Quantifications of VE-cadherin enrichment at intercellular junctions and of intercellular spaces area were performed on 30 fields with Image J software. Kruskal-Wallis test ** P<0.001, *** P<0.0001 of four independent experiments performed in triplicate.
FIG. 3: Vascular protection is conferred by a novel binding motif (aa 66-80) present in the N-terminal part of ANGPTL4. A, the indicated peptides were derived from nANGPTL4. B, HDMECs were infected with Nm 2C4.3 for 30 min and treated with 1 μg/mL of each peptides. Quantifications of VE-cadherin enrichment at intercellular junctions was performed on 30 fields with Image J software.
FIG. 4: Vascular protection is conferred by interaction of nANGPTL4 with Syndecan-4. A, HDMECs were infected with Nm 2C4.3 for 30 min and treated with 1 μg/mL of recombinant human ANGPTL4, nANGPTL4 or cANGPTL4 in the absence or in the presence of anti-SDC4 antibody for 2 h 30. Cells were fixed and stained for cellular actin, VE-cadherin and DAPI and analysed by fluorescent microscopy. Quantifications of VE-cadherin enrichment at intercellular junctions and of intercellular spaces area were performed on 30 fields with Image J software. Kruskal-Wallis test ** P<0.001, **** P<0.00001, ns1 P=0.2172; ns2 P>0.999 of four independent experiments performed in triplicate. B, HDMECs were transfected with small interfering RNA (siRNA) against SDC4 or non-targeting siRNA controls for 48 h, infected with Nm 2C4.3 for 30 min and treated with 1 μg/mL of recombinant human ANGPTL4, for 2 h 30. Quantifications of VE-cadherin enrichment at intercellular junctions and of intercellular spaces area were performed on 30 fields with Image J software. Kruskal-Wallis test ** P<0.001, *** P<0.0001, of two independent experiments performed in triplicate.
The day of infection, a suspension of the bacteria from an overnight culture on GCB agar plate was adjusted to OD600=0.05 and incubated for 2 h at 37° C. in a pre-warmed cell culture medium. Cells were infected with bacteria at a multiplicity of infection (MOI) of 100 bacteria per cell (OD=0.1) for 30 minutes, washed twice to remove non-adherent bacteria and infection was allowed to proceed for various periods of time. Cells were then washed and fixed in 4% paraformaldehyde for immunofluorescence analysis. […]

[3] = test system: Balb/c mice challenged with LPS; assay: LPS-induced endotoxemia (sepsis) in mice; assay type: in vivo; settings: LPS 5 mg kg-1 i.p.; 2 μg/mouse i.v.
Description: FIG. 9: ANGPTL4 protects against LPS-induced endotoxemia by preventing vascular dysfunction and organ failure. A-B, Balb/c mice received LPS (5 mg kg-1, i.p.); 30 min after LPS challenge, mice received recombinant human ANGPTL4 (2 μg, intravenously), or vehicle as a control. A, A schematic representation of the protocol used. B, Survival curve (n=16 mice per group): **** P<0.0001; two-sided log-rank Mantel-Cox survival analysis. C,D, Balb/c mice received LPS (5 mg kg-1, i.p.); 30 min after LPS challenge, mice received nANGPTL4 (2 μg, intravenously), or vehicle as a control. C, A schematic representation of the protocol used. D, Survival curve (n=6 mice per group): ** P=0.0033; two-sided log-rank Mantel-Cox survival analysis. E, F, Balb/c mice received LPS (5 mg kg-1, i.p.); 30 min after LPS challenge, mice received Peptide 1 (2 μg, intravenously), or vehicle as a control. E, A schematic representation of the protocol used. F, Survival curve (n=6 mice per group): * P=0.0163; two-sided log-rank Mantel-Cox survival analysis. G, Balb/c mice received LPS (5 mg kg-1. i.p.): 30 min after LPS challenge, mice received recombinant human peptide P9 (2 μg. intravenously). or vehicle as a control. Survival curves (n=6 mice per group). *** P<0.001: two-sided log-rank Mantel-Cox survival analysis. H. Balb/c mice received LPS (4 mg kg-1. i.p.) together with anti-ANGPTL4 blocking antibody (10 μg kg-1. i.v) or vehicle as a control. 18 h after LPS challenge. mice were perfused with Evans blue for 1 h. were killed and brain were extracted. Quantification analysis of Evans blue extravasation (n=4 mice per group). Bars and error bars show the mean±s.e.m., respectively, from two independent experiments: *** P<0.001: NS, not significant (P>0.05) one-way ANOVA Tukey's multiple comparison test.
Female BALB/c mice, obtained from Janvier Labs, 9-10 weeks of age, were administered LPS at 5 mg/kg intraperitoneally and survival was monitored for 72 h (n=12 per group). BALB/c mice were randomly divided into 2 groups: LPS and LPS+Angptl4. Angptl4 (2 μg/mice) or vehicle (physiological saline solution) was administered intravenously 30 min after LPS challenge. In some experiments, blood serum, kidney and lung were collected at 18 h post-LPS challenge. Kidney and lungs were fixed in 4% PFA, embedded in paraffin, and 5-μm sections were cut from each block and stained with H&E. The stained sections were observed and acquired using a slide scanner (Lamina, Perkin Elmer). Analysis of the images was performed using ImageJ software (NIH).
Since severe endothelial dysfunction, leading to dysregulation of hemostasis and vascular dysfunction, is central to the progression to organ failure during sepsis, we analysed whether ANGPTL4 could play a protective role in sepsis, using a lipopolysaccharide (LPS)-induced endotoxemia (FIG. 9A). After LPS-challenge (5 mg kg-1, i.p.), all mice died within two days (FIG. 9B).

Compound | bactericidal effect (bacteraemia) [1] | mice survival [1] | thrombosis at 4 h post-infection [1] | protective effect on monolayer integrity (adherens junctions, cell detachment) of infected HDMECs [2] | sepsis-associated mortality / survival rate [3]
CO/N=C(\C(=O)N[C@@H]1C(=O)N2C(C(=O)O)=C(COC(C)=O)CS[C@H]12)c1csc(N)n1 [cefotaxime] | strong bactericidal effect | associated with mice survival | did not prevent the triggering of thrombosis |  | 
LSALERRLSACGSAC (Peptide P9) |  |  |  | completely inhibited infection-induced damages | reduced sepsis-associated mortality rate as efficiently as the full-length protein
SALERRLSACGS (Peptide P10) |  |  |  | no effect | did not significantly increased the survival rate
WDEMNVLAHGLLQLGQGLREHAERTRSQLSALERRLSACGSACQGT (Peptide P1) |  |  |  | sufficient to prevent loss of adherens junctions and cell detachment induced by infection as efficiently as the full-length protein | reduced sepsis-associated mortality rate as efficiently as the full-length protein
